# Results as given in publication PMC9428149, “Tackling recalcitrant Pseudomonas aeruginosa infections in critical illness via anti-virulence monotherapy” (Nature Communications, 2022).
# Several values for one entry are separate records, joined by “and”; a condition that tells them apart may be missing. Identical values can stand only once. Entries after “also recorded” stand apart in the source; their conditions may differ. Like-named read-outs stand apart in the source and are kept apart here.
# Experiments:
# [1] = tested on: Hep G2 cells; experiment: MTT cytotoxicity, Hep G2; assay type: cell-based, human; conditions: for Cell viability (MTT) relative to Vehicle: Hep G2, replicates
# Method: For the determination of cytotoxicity, cell viability was determined using the MTT (3-[4, 5-dimethyl-2-thiazolyl]−2, 5-diphenyl-2H-tetrazolium bromide) assay in the presence and absence of compound (D88). […] The cells were then treated with either vehicle or different concentrations of D88 (10, 20, 30, 40, and 50 µM) for 24 h at 37 °C and 5% CO2. After 24 h, the cells were washed three times with PBS and were incubated in 200 μL PBS containing 200 μg mL^−1 MTT (Sigma-Aldrich) in a 96-well culture plate for 2 h at 37 °C and 5% CO2. Following incubation, the supernatant was discarded, and the cells were lysed in 95% isopropanol and 5% formic acid.
# [2] = DMPK of D88 in mice (plasma); assay type: in vivo, mouse; conditions: for half-life: read-out: half-life (T ½) (converted)
# Method: Experiments were conducted by Aptuit (Verona) S.rl, an Evotec Company in Italy. Six weeks old male CD-1 mice were obtained from Charles River Laboratories, Italy. Mice were maintained on a 12 h light cycle with ad libitum access to rodent feed and water.
# Healthy animals received IV 1.0 mg kg^−1 or SC administration of the 10.2 mg kg^−1 in homogeneous suspension in 0.5 % HPMC in water at the volume of 1.7 mL kg^−1. Following administration, blood samples were collected under deep isoflurane anesthesia from the cava vein of each mouse into tubes with K3EDTA, thoroughly but gently mixed, and placed on wet ice. Within 0.5 h of collection, blood was centrifuged (2500 g for 10 min at 4 °C) and within 0.5 h, aliquots of plasma were transferred into appropriately labeled sample tubes. A first 20 µL aliquot were mixed with 80 µL of Hepes 0.1 N. A second 5 µL aliquot of plasma was added to a well plate for urea quantification without dilution. Plasma samples were processed using a method based on protein precipitation with acetonitrile followed by HPLC/MS-MS analysis with an optimized analytical method.
# [3] = male, CD-1, mouse, 1 mg/kg IV, plasma
# [4] = male, CD-1, mouse, 10 mg/kg SC, plasma
structure (smiles),measurement,setting,value
N#Cc1ccc(NC(=O)C(F)C(=O)Nc2ccc(Oc3ccccc3)cc2)cc1 (stereo not shown) [D88],cell viability,"[1]; Hep G2, 10-50 µM, 24 h",None of the used compound concentrations exerted any cytotoxic effect; also recorded: no significant changes in cell viability
same,Cell viability (MTT) relative to Vehicle,[1]; 10 μM,91.32 and 107.98 and 99.70 and 117.35 and 109.09 and 100.19
same,Cell viability (MTT) relative to Vehicle,[1]; 20 μM,95.30 and 117.21 and 108.45 and 112.28 and 97.33 and 109.75
same,Cell viability (MTT) relative to Vehicle,[1]; 30 μM,92.58 and 115.65 and 108.60 and 112.37 and 92.39 and 103.33
same,Cell viability (MTT) relative to Vehicle,[1]; 40 μM,107.42 and 114.93 and 105.81 and 114.05 and 107.35 and 99.51
same,Cell viability (MTT) relative to Vehicle,[1]; 50 μM,91.19 and 110.82 and 100.96 and 118.91
same,Clast,"[2]; 1 mg/kg IV, plasma",14.2 ng/mL
same,Clast,"[2]; 10 mg/kg SC, plasma",66.6 ng/mL
same,Concentration,"[2]; IV Injection 1mg/kg, Time 0.08 h, individual animals, 1 mg/kg",648 ng/mL and 1150 ng/mL and 1460 ng/mL
same,Concentration,"[2]; IV Injection 1mg/kg, Time 0.33 h, individual animals, 1 mg/kg",210 ng/mL and 298 ng/mL and 486 ng/mL
same,Concentration,"[2]; IV Injection 1mg/kg, Time 0.67 h, individual animals, 1 mg/kg",77.1 ng/mL and 131 ng/mL
same,Concentration,"[2]; IV Injection 1mg/kg, Time 1 h, individual animals, 1 mg/kg",10.9 ng/mL and 25.8 ng/mL and 57.4 ng/mL
same,Concentration,"[2]; SC Injection 10mg/kg, Time 0.08 h, individual animals, 10 mg/kg",491 ng/mL and 600 ng/mL and 954 ng/mL and 1250 ng/mL
same,Concentration,"[2]; SC Injection 10mg/kg, Time 0.33 h, individual animals, 10 mg/kg",712 ng/mL and 1020 ng/mL and 1060 ng/mL and 1590 ng/mL
same,Concentration,"[2]; SC Injection 10mg/kg, Time 0.67 h, individual animals, 10 mg/kg",581 ng/mL and 875 ng/mL and 940 ng/mL and 1190 ng/mL
same,Concentration,"[2]; SC Injection 10mg/kg, Time 1 h, individual animals, 10 mg/kg",513 ng/mL and 854 ng/mL and 838 ng/mL and 1070 ng/mL
same,Concentration,"[2]; SC Injection 10mg/kg, Time 2 h, individual animals, 10 mg/kg",746 ng/mL and 683 ng/mL and 744 ng/mL
same,Concentration,"[2]; SC Injection 10mg/kg, Time 3.8 h, individual animals, 10 mg/kg",90.5 ng/mL and 323 ng/mL and 480 ng/mL and 304 ng/mL
same,Concentration,"[2]; SC Injection 10mg/kg, Time 6 h, individual animals, 10 mg/kg",21.9 ng/mL and 63.8 ng/mL and 101 ng/mL and 79.7 ng/mL
same,concentration at 0.67 h,"[2]; male, CD-1, mouse, plasma, iv, 1 mg/kg, IV Injection 1mg/kg, Time 0.67 h, individual animals",76.4 ng/mL
same,concentration at 2 h,"[2]; male, CD-1, mouse, plasma, iv, 1 mg/kg, IV Injection 1mg/kg, Time 2 h, individual animals",5.9 ng/mL
same,concentration at 2 h,"[2]; male, CD-1, mouse, plasma, sc, 10 mg/kg, SC Injection 10mg/kg, Time 2 h, individual animals",443 ng/mL
same,Cmax,[2]; [3],1090 ng/mL
same,Tmax,[2]; [3],4.8 min
same,half-life,[2]; [3],16.2 min
same,Cmax,[2]; [4],1100 ng/mL
same,Tmax,[2]; [4],19.8 min
same,half-life,[2]; [4],75 min
